Read-outs that look alike come from different tables or passages of the source.
How the values were obtained:
Assay in all cases: Test E pre-/postemergence plant response
Type in all cases: in vivo
[1] = tested on: speedwell (bird's-eye speedwell, Veronica persica); conditions: scale 0 to 100, read-out: Plant response rating, Speedwell; for pest or weed control at 16 g/ha: 16 g ai/ha; for pest or weed control at 62 g/ha: 62 g ai/ha; for pest or weed control at 125 g/ha: 125 g ai/ha
Summary of the method: (§1)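 Pre-emergence: seeds sown in silt loam soil and sprayed with test chemicals in a non-phytotoxic solvent/surfactant mix. Post-emergence: plants at 2–18 cm (1- to 4-leaf stage) in peat/vermiculite medium treated with the same formulation. Visual rating versus controls after 7–21 days, 0 (no effect) to 100 (complete control).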

[2] = tested on: spring barley (Hordeum vulgare); conditions: for plant injury at 16 g/ha: 16 g ai/ha; for plant injury at 31 g/ha: 31 g ai/ha; for plant injury at 62 g/ha: 62 g ai/ha; for plant injury at 125 g/ha: 125 g ai/ha
Summary of the method: as §1

[3] = tested on: bluegrass (annual bluegrass, Poa annua); conditions: scale 0 to 100, read-out: Plant response rating, Bluegrass; for pest or weed control at 16 g/ha: 16 g ai/ha; for pest or weed control at 31 g/ha: 31 g ai/ha; for pest or weed control at 62 g/ha: 62 g ai/ha; for pest or weed control at 125 g/ha: 125 g ai/ha
Summary of the method: as §1

[4] = tested on: winter barley (Hordeum vulgare); conditions: scale 0 to 100, read-out: Plant response rating, Barley, Winter; for plant injury at 16 g/ha: 16 g ai/ha; for plant injury at 31 g/ha: 31 g ai/ha; for plant injury at 62 g/ha: 62 g ai/ha; for plant injury at 125 g/ha: 125 g ai/ha
Summary of the method: as §1

[5] = tested on: galium (catchweed bedstraw, Galium aparine); conditions: scale 0 to 100, read-out: Plant response rating, Galium; for pest or weed control at 16 g/ha: 16 g ai/ha; for pest or weed control at 31 g/ha: 31 g ai/ha; for pest or weed control at 62 g/ha: 62 g ai/ha; for pest or weed control at 125 g/ha: 125 g ai/ha
Summary of the method: as §1

[6] = tested on: windgrass (Apera spica-venti); conditions: scale 0 to 100, read-out: Plant response rating, Windgrass; for pest or weed control at 16 g/ha: 16 g ai/ha; for pest or weed control at 62 g/ha: 62 g ai/ha; for pest or weed control at 125 g/ha: 125 g ai/ha
Summary of the method: as §1

[7] = tested on: wild mustard (Sinapis arvensis); conditions: Brassica, scale 0 to 100, read-out: Plant response rating, Mustard, Wild; for pest or weed control at 16 g/ha: 16 g ai/ha; for pest or weed control at 31 g/ha: 31 g ai/ha; for pest or weed control at 62 g/ha: 62 g ai/ha; for pest or weed control at 125 g/ha: 125 g ai/ha
Summary of the method: as §1

[8] = tested on: chickweed (common chickweed, Stellaria media); conditions: scale 0 to 100, read-out: Plant response rating, Chickweed; for pest or weed control at 16 g/ha: 16 g ai/ha; for pest or weed control at 31 g/ha: 31 g ai/ha; for pest or weed control at 62 g/ha: 62 g ai/ha; for pest or weed control at 125 g/ha: 125 g ai/ha
Summary of the method: as §1

[9] = tested on: canarygrass (Phalaris minor); conditions: scale 0 to 100, read-out: Plant response rating, Canarygrass; for pest or weed control at 16 g/ha: 16 g ai/ha; for pest or weed control at 31 g/ha: 31 g ai/ha; for pest or weed control at 62 g/ha: 62 g ai/ha; for pest or weed control at 125 g/ha: 125 g ai/ha
Summary of the method: as §1

[10] = tested on: downy bromegrass (Bromus tectorum); conditions: scale 0 to 100, read-out: Plant response rating, Bromegrass, Downy; for pest or weed control at 16 g/ha: 16 g ai/ha; for pest or weed control at 31 g/ha: 31 g ai/ha; for pest or weed control at 62 g/ha: 62 g ai/ha; for pest or weed control at 125 g/ha: 125 g ai/ha
Summary of the method: as §1

[11] = post-emergence, 31 g ai/ha, Postemergence
[12] = post-emergence, Postemergence, scale 0 to 100, read-out: Plant response rating, Barley, Spring
[13] = pre-emergence, Preemergence, scale 0 to 100, read-out: Plant response rating, Barley, Spring

Fc1cccc(Oc2ncc(Br)cn2)c1-c1cc(C(F)F)no1 [Compound 145, 5-bromo-2-[2-[3-(difluoromethyl)-5-isoxazolyl]-3-fluorophenoxy]pyrimidine]
pest or weed control at 16 g/ha ([1]; post-emergence, Postemergence): 100% | pest or weed control at 31 g/ha [1, 11]: 100% | pest or weed control at 62 g/ha ([1]; post-emergence, Postemergence): 100% | pest or weed control at 125 g/ha ([1]; post-emergence, Postemergence): 100% | pest or weed control at 16 g/ha ([1]; pre-emergence, Preemergence): 95% | pest or weed control at 62 g/ha ([1]; pre-emergence, Preemergence): 100% | pest or weed control at 125 g/ha ([1]; pre-emergence, Preemergence): 100% | plant injury at 16 g/ha [2, 12]: 15% | plant injury at 31 g/ha [2, 12]: 15% | plant injury at 62 g/ha [2, 12]: 20% | plant injury at 125 g/ha ([2]; post-emergence, Postemergence, scale 0 to 100 (0 no effect, 100 complete control), read-out: Plant response rating, Barley, Spring): 30% | plant injury at 16 g/ha [2, 13]: 15% | plant injury at 31 g/ha [2, 13]: 25% | plant injury at 62 g/ha [2, 13]: 45% | plant injury at 125 g/ha [2, 13]: 80% | pest or weed control at 16 g/ha ([3]; post-emergence, Postemergence): 15% | pest or weed control at 31 g/ha ([3]; post-emergence, Postemergence): 60% | pest or weed control at 62 g/ha ([3]; post-emergence, Postemergence): 65% | pest or weed control at 125 g/ha ([3]; post-emergence, Postemergence): 70% | pest or weed control at 16 g/ha ([3]; pre-emergence, Preemergence): 0% | pest or weed control at 31 g/ha ([3]; pre-emergence, Preemergence): 0% | pest or weed control at 62 g/ha ([3]; pre-emergence, Preemergence): 10% | pest or weed control at 125 g/ha ([3]; pre-emergence, Preemergence): 90% | plant injury at 16 g/ha ([4]; post-emergence, Postemergence): 15% | plant injury at 31 g/ha ([4]; post-emergence, Postemergence): 15% | plant injury at 62 g/ha ([4]; post-emergence, Postemergence): 30% | plant injury at 125 g/ha ([4]; post-emergence, Postemergence): 40% | plant injury at 16 g/ha ([4]; pre-emergence, Preemergence): 10% | plant injury at 31 g/ha ([4]; pre-emergence, Preemergence): 15% | plant injury at 62 g/ha ([4]; pre-emergence, Preemergence): 30% | plant injury at 125 g/ha ([4]; pre-emergence, Preemergence): 85% | pest or weed control at 16 g/ha ([5]; post-emergence, Postemergence): 95% | pest or weed control at 31 g/ha ([5]; post-emergence, Postemergence): 95% | pest or weed control at 62 g/ha ([5]; post-emergence, Postemergence): 98% | pest or weed control at 125 g/ha ([5]; post-emergence, Postemergence): 100% | pest or weed control at 16 g/ha ([5]; pre-emergence, Preemergence): 25% | pest or weed control at 31 g/ha ([5]; pre-emergence, Preemergence): 100% | pest or weed control at 62 g/ha ([5]; pre-emergence, Preemergence): 100% | pest or weed control at 125 g/ha ([5]; pre-emergence, Preemergence): 100% | pest or weed control at 16 g/ha ([6]; post-emergence, Postemergence): 5% | pest or weed control at 31 g/ha [6, 11]: 10% | pest or weed control at 62 g/ha ([6]; post-emergence, Postemergence): 20% | pest or weed control at 125 g/ha ([6]; post-emergence, Postemergence): 60% | pest or weed control at 16 g/ha ([6]; pre-emergence, Preemergence): 10% | pest or weed control at 62 g/ha ([6]; pre-emergence, Preemergence): 75% | pest or weed control at 125 g/ha ([6]; pre-emergence, Preemergence): 98% | pest or weed control at 16 g/ha ([7]; post-emergence, Postemergence): 100% | pest or weed control at 31 g/ha ([7]; post-emergence, Postemergence): 100% | pest or weed control at 62 g/ha ([7]; post-emergence, Postemergence): 100% | pest or weed control at 125 g/ha ([7]; post-emergence, Postemergence): 100% | pest or weed control at 16 g/ha ([7]; pre-emergence, Preemergence): 95% | pest or weed control at 31 g/ha ([7]; pre-emergence, Preemergence): 100% | pest or weed control at 62 g/ha ([7]; pre-emergence, Preemergence): 100% | pest or weed control at 125 g/ha ([7]; pre-emergence, Preemergence): 100% | pest or weed control at 16 g/ha ([8]; post-emergence, Postemergence): 80% | pest or weed control at 31 g/ha ([8]; post-emergence, Postemergence): 85% | pest or weed control at 62 g/ha ([8]; post-emergence, Postemergence): 100% | pest or weed control at 125 g/ha ([8]; post-emergence, Postemergence): 95% | pest or weed control at 16 g/ha ([8]; pre-emergence, Preemergence): 100% | pest or weed control at 31 g/ha ([8]; pre-emergence, Preemergence): 100% | pest or weed control at 62 g/ha ([8]; pre-emergence, Preemergence): 100% | pest or weed control at 125 g/ha ([8]; pre-emergence, Preemergence): 100% | pest or weed control at 16 g/ha ([9]; post-emergence, Postemergence): 15% | pest or weed control at 31 g/ha ([9]; post-emergence, Postemergence): 25% | pest or weed control at 62 g/ha ([9]; post-emergence, Postemergence): 40% | pest or weed control at 125 g/ha ([9]; post-emergence, Postemergence): 65% | pest or weed control at 16 g/ha ([9]; pre-emergence, Preemergence): 40% | pest or weed control at 31 g/ha ([9]; pre-emergence, Preemergence): 75% | pest or weed control at 62 g/ha ([9]; pre-emergence, Preemergence): 100% | pest or weed control at 125 g/ha ([9]; pre-emergence, Preemergence): 100% | pest or weed control at 16 g/ha ([10]; post-emergence, Postemergence): 25% | pest or weed control at 31 g/ha ([10]; post-emergence, Postemergence): 35% | pest or weed control at 62 g/ha ([10]; post-emergence, Postemergence): 55% | pest or weed control at 125 g/ha ([10]; post-emergence, Postemergence): 55% | pest or weed control at 16 g/ha ([10]; pre-emergence, Preemergence): 10% | pest or weed control at 31 g/ha ([10]; pre-emergence, Preemergence): 20% | pest or weed control at 62 g/ha ([10]; pre-emergence, Preemergence): 35% | pest or weed control at 125 g/ha ([10]; pre-emergence, Preemergence): 60%

From US10131652B2, “Pyrimidinyloxy benzene derivatives as herbicides” (E. I. DU PONT DE NEMOURS AND COMPANY, priority 2014, dated 2018)
